Results published in patent US20260083704A1, “LXR MODULATORS WITH BICYCLIC CORE MOIETY FOR TREATING DYSLIPIDEMIAS” (OrsoBio, Inc., priority 2022, published 2026).

What was measured:
[1] = biological target: T1, GST-LXRβ ligand-binding domain (Homo sapiens, UniProt P55055); assay: TR-FRETβ activity assay (NCoA3 coactivator peptide recruitment); format: biochemical; settings: 1 μM 24(S)-25-epoxycholesterol prestimulation
T1 construct: amino acids 156-461; NP009052; made in house; host or cells: E. coli
T1 sequence (P55055 156-460 limits assumed): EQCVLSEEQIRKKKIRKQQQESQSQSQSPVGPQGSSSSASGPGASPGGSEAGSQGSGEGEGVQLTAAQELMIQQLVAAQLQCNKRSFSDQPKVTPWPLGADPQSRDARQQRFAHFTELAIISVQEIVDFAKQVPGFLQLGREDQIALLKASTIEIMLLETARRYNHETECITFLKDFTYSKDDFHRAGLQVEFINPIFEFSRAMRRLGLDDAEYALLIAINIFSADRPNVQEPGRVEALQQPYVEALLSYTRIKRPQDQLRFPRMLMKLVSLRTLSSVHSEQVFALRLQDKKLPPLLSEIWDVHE
Protocol: Recombinant GST-LXRβ ligand-binding domain (LBD; amino acids 156-461; NP009052; SEQ ID NO:4) was expressed in E. coli and purified via gluthatione-sepharose affinity chromatography. N-terminally biotinylated NCoA3 coactivator peptide (SEQ ID NO:7) was chemically synthesized (Eurogentec). Assays were done in 384 well format (final assay volume of 25 μL/well) in a Tris/HCl buffer (pH 6.8) containing KCl, bovine serum albumin, Triton-X-100 and 1 μM 24(S)-25-epoxycholesterol as LXR-prestimulating agonist. Assay buffer was provided and test articles (potential LXR inverse agonists) were titrated to yield final assay concentrations of 50 μM, 16.7 μM, 5.6 μM, 1.9 μM, 0.6 μM, 0.2 μM, 0.07 μM, 0.02 μM, 0.007 μM, 0.002 μM with one vehicle control. Finally, a detection mix was added containing anti GST-Tb cryptate (CisBio; 610SAXLB) and Streptavidin-XL665 (CisBio; 610SAXLB) as fluorescent donor and acceptor, respectively, as well as the coactivator peptide and LXRβ-LBD protein (SEQ ID NO:4). The reaction was mixed thoroughly, equilibrated for 1 h at 4° C. and vicinity of LXRβ and coactivator peptide was detected by measurement of fluorescence in a VictorX4 multiplate reader (PerkinElmer Life Science) using 340 nm as excitation and 615 and 665 nm as emission wavelengths. Assays were performed in triplicates.
240 mM KCl, 1 μg/μL BSA, 0.002% Triton-X-100, […] anti GST-Tb cryptate, 2.5 ng/μL Streptavidin-XL665, coactivator peptide (400 nM), LXRβ protein (530 μg/mL, i.e. 76 nM).

[2] = biological target: T2, LXRβ (Homo sapiens, UniProt P55055); assay: LXR Gal4 reporter transient transfection assay (mammalian two-hybrid, HEK293), LXRβ; format: cell-based; design: LXRβ (amino acids 156-461); expressed in transfected cells; host or cells: HEK293; settings: full length (FL) LXRβ, HEK293; read-out: FL-M2H Gal4β
T2 sequence (P55055 1-460): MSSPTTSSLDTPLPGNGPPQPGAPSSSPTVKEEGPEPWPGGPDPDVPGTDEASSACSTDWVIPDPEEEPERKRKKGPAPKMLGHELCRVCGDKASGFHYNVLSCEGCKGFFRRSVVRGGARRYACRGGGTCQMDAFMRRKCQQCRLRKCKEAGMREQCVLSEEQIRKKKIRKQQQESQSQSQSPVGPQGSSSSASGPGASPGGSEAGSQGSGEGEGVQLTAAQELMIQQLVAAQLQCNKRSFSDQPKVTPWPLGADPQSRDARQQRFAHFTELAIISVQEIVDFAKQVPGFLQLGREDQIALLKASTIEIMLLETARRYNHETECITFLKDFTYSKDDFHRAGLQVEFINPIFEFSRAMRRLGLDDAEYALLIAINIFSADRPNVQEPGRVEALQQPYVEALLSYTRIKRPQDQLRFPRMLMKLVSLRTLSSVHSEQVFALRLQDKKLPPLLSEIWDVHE
Protocol: LXRα and LXRβ activity status was determined via detection of interaction with coactivator and corepressor proteins in mammalian two-hybrid experiments (M2H). For this, via transient transfection the full length (FL) proteins of LXRα (amino acids 1-447; NP005684; SEQ ID NO:1) or LXRβ-(amino acids 1-461; NP009052; SEQ ID NO:2) or the ligand-binding domains (LBD) of LXRα (amino acids 155-447 SEQ ID NO:3) or LXRβ (amino acids 156-461; SEQ ID NO:4) were expressed from pCMV-AD (Stratagene) as fusions to the transcriptional activation domain of NFkB. As cofactors, domains of either the steroid receptor coactivator 1 (SRC1; amino acids 552-887; SEQ ID NO:5) or of the corepressor NCoR (amino acids 1906-2312; NP006302; SEQ ID NO:6) were expressed as fusions to the DNA binding domain of the yeast transcription factor GAL4 (from pCMV-BD; Stratagene). Interaction was monitored via activation of a coexpressed Firefly Luciferase Reporter gene under control of a promoter containing repetitive GAL4 response elements (vector pFRLuc; Stratagene). Transfection efficiency was controlled via cotransfection of constitutively active pRL-CMV Renilla reniformis luciferase reporter (Promega). HEK293 cells were grown in minimum essential medium (MEM) with 2 mM L-glutamine and Earle's balanced salt solution supplemented with 8.3% fetal bovine serum, 0.1 mM non-essential amino acids, 1 mM sodium pyruvate, at 37° C. in 5% CO2. 3.5×10^4 cells/well were plated in 96-well cell culture plates in growth medium supplemented with 8.3% fetal bovine serum for 16-20 h to ˜90% confluency. For transfection, medium was taken off and LXR and cofactor expressing plasmids as well as the reporter plasmids are added in 30 μL OPTIMEM/well including polyethylene-imine (PEI) as vehicle. Typical amounts of plasmids transfected/well: pCMV-AD-LXR (5 ng), pCMV-BD-cofactor (5 ng), pFR-Luc (100 ng), pRL-CMV (0.5 ng). Compound stocks were prepared in DMSO, prediluted in MEM to a total volume of 120 μL, and added 4 h after addition of the transfection mixture (final vehicle concentration not exceeding 0.2%). Cells were incubated for additional 16 h, lysed for 10 min in 1×Passive Lysis Buffer (Promega) and Firefly and Renilla luciferase activities were measured sequentially in the same cell extract using buffers containing D-luciferine and coelenterazine, respectively. Measurements of luminescence were done in a BMG-luminometer.
The potencies of Compound 21/3 and its analog, Compound pre-6/3, against LXRα and LXRβ were evaluated in biochemical binding assays, cellular mammalian two-hybrid (M2H) interaction assays evaluating nuclear receptor co-repressor (NCOR) recruitment, and cellular reporter assays evaluating transcriptional activity (Table 5).

| SMILES | EC50 [1] | EC50 [2] |
| --- | --- | --- |
| Cc1ccc(S(=O)(=O)n2c(-c3cccc(-c4cc(F)c(C(=O)O)cc4Cl)c3)c(-c3ccsc3C#N)c3cc(F)ccc32)cc1 [12/2] | 100 to 1000 nM | < 100 nM |
| N#Cc1cccc(C#N)c1-c1c(-c2cccc(N3CC(C(=O)O)C3)c2)n(S(=O)(=O)c2ccc(C(F)F)cc2)c2ccc(F)cc12 [3/67] | 100 to 1000 nM | 100 to 1000 nM |
| Cc1ccc(S(=O)(=O)n2c(-c3cccc(C#CC(C)(C)C(=O)O)c3)c(-c3ccsc3C#N)c3cc(F)ccc32)cc1 [5/4] | 1000 to 10000 nM | < 100 nM |
| Cc1ccc(S(=O)(=O)n2c(-c3cccc(N4CC[C@@H](C(=O)O)C[C@H]4C)c3)c(-c3ccsc3C#N)c3cc(F)ccc32)cc1 [5/9] | 100 to 1000 nM | < 100 nM |
| Cc1ccc(S(=O)(=O)n2c(-c3ccnc(-c4ccc(C(=O)O)cc4)c3)c(-c3ccsc3C#N)c3cc(F)ccc32)cc1 [5/6] | 100 to 1000 nM | < 100 nM |
| Cc1ccc(S(=O)(=O)n2c(-c3cccc(-c4ccc(C(=O)NS(C)(=O)=O)cc4Cl)c3)c(-c3ccsc3C#N)c3cc(F)ccc32)cc1 [32/4] | < 100 nM | < 100 nM |
| N#Cc1sccc1-c1c(-c2cccc(-c3ccc(C(=O)O)cc3Cl)c2)n(S(=O)(=O)c2ccc(C(F)F)nc2)c2ccc(F)cc12 [11/57] | < 100 nM | < 100 nM |
| Cc1ccc(S(=O)(=O)n2c(-c3cccc(-c4cccc(S(C)(=O)=Nc5nnn[nH]5)c4)c3)c(-c3ccsc3C#N)c3cc(F)ccc32)cc1 (stereo not drawn) [37/1] | 100 to 1000 nM | 100 to 1000 nM |
| N#Cc1sccc1-c1c(-c2cccc(N3CC(C(=O)O)C3)c2)n(S(=O)(=O)c2ccc(Cl)cc2)c2ccc(F)cc12 [5/7] | 100 to 1000 nM | < 100 nM |
| N#Cc1cccc(C#N)c1-c1c(-c2cccc([C@H]3CC[C@@H](C(=O)O)CC3)c2)n(S(=O)(=O)c2ccc(C(F)F)cc2)c2ccc(F)cc12 [11/61] | 100 to 1000 nM | < 100 nM |
| Cc1ccc(S(=O)(=O)n2c(-c3cccc(C45CC(C(=O)O)(C4)C5)c3)c(-c3ccsc3C#N)c3ccccc32)cc1 [5/2] | 100 to 1000 nM | 100 to 1000 nM |
| Cc1ccc(S(=O)(=O)n2c(-c3cccc(-c4ccc(C(C)(O)C(=O)O)cc4)c3)c(-c3ccsc3C#N)c3cc(F)ccc32)cc1 (stereo not drawn) [3/55] | 100 to 1000 nM | < 100 nM |
| COC(=O)C(C)(C)N(C)C(=O)C1CN(c2cccc(-c3c(-c4ccsc4C#N)c4cc(F)ccc4n3S(=O)(=O)c3ccc(C)cc3)c2)C1 [32/2] | 100 to 1000 nM | 100 to 1000 nM |
| Cc1ccc(S(=O)(=O)n2c(-c3cccc(-c4ccc(CN)cc4Cl)c3)c(-c3ccsc3C#N)c3cc(F)ccc32)cc1 [2/1] | 100 to 1000 nM | 100 to 1000 nM |
| O=C(O)c1ccc(-c2cccc(-c3c(-c4ncccc4N4CC(O)C4)c4cc(F)ccc4n3S(=O)(=O)c3ccc(C(F)F)cc3)c2)c(Cl)c1 [5/10] | 1000 to 10000 nM | 100 to 1000 nM |
| COc1cc(-c2cccc(-c3c(-c4ccsc4C#N)c4cc(F)ccc4n3S(=O)(=O)c3ccc(C)cc3)c2)c(Cl)cc1C(=O)O [12/4] | 100 to 1000 nM | < 100 nM |

| SMILES | EC50 [1] | EC50 [2] |
| --- | --- | --- |
| COc1cc(F)cc2c(-c3ccsc3C#N)c(-c3cccc(-c4ccc(C(=O)O)cc4)c3)n(S(=O)(=O)c3ccc(C)cc3)c12 [3/53] | < 100 nM | < 100 nM |
| O=C(O)c1ccc(-c2cccc(-c3c(-c4c(C(F)F)cccc4C(F)F)c4cc(F)ccc4n3S(=O)(=O)c3ccc(C(F)F)cc3)c2)c(Cl)c1 [11/15] | < 100 nM | < 100 nM |
| COc1cccnc1-c1c(-c2cccc(-c3ccc(C(=O)O)cc3Cl)c2)n(S(=O)(=O)c2ccc(C(F)F)cc2)c2ccc(F)cc12 [11/40] | 100 to 1000 nM | < 100 nM |
| Cc1ccc(S(=O)(=O)n2c(-c3cccc(-c4cc(C(=O)O)n[nH]4)c3)c(-c3ccsc3C#N)c3cc(F)ccc32)cc1 [12/6] | 1000 to 10000 nM | 1000 to 10000 nM |
| N#Cc1sccc1-c1c(-c2ccccc2)n(S(=O)(=O)c2ccc(CC(=O)O)cc2)c2ccccc12 [27/1] | 1000 to 10000 nM |  |
| CC(O)(C(=O)O)c1ccc(-c2cccc(-c3c(-c4c(C#N)cccc4C#N)c4cc(F)ccc4n3S(=O)(=O)c3ccc(C(F)F)cc3)c2)c(Cl)c1 (stereo not drawn) [11/60] |  | < 100 nM |
| N#Cc1sccc1-c1c(-c2cccc(N3CC(C(=O)O)C3)c2)n(S(=O)(=O)c2ccc(OC(F)F)cc2)c2ccc(F)cc12 [3/11] | 1000 to 10000 nM |  |
| Cc1cccc(C#N)c1-c1c(-c2cccc(-c3ccc(C(=O)O)cc3Cl)c2)n(S(=O)(=O)c2ccc(C(F)F)cc2)c2ccc(F)cc12 [41/1, 2-chloro-3′-(3-(2-cyano-6-methylphenyl)-1-((4-(difluoro-methyl)phenyl)sulfonyl)-5-fluoro-1H-indol-2-yl)-[1,1′-biphenyl]-4-carboxylic acid] | < 100 nM |  |
| N#Cc1sccc1-c1c(-c2cccs2)n(S(=O)(=O)c2ccc(Cl)cc2)c2cc(C(=O)O)ccc12 [Compound 19] | > 10000 nM |  |
| N#Cc1sccc1-c1c(-c2ccccc2)n(S(=O)(=O)c2ccc(-c3cccc(C(=O)O)c3)cc2)c2ccccc12 [27/2] | 1000 to 10000 nM |  |
| N#Cc1sccc1-c1c(-c2ccccc2)n(S(=O)(=O)c2ccc(CC(=O)O)s2)c2ccccc12 [27/3] | > 10000 nM |  |
| Cn1cnc(S(=O)(=O)n2c(-c3cccc(C4CC4C(=O)O)c3)c(-c3ccsc3C#N)c3ccccc32)c1 (stereo not drawn) [30/10] | > 10000 nM |  |
| Cc1ccc(S(=O)(=O)n2c(-c3cccc(S(=O)(=O)CC(=O)O)c3)c(-c3ccsc3C#N)c3ccccc32)cc1 [3/15] | 1000 to 10000 nM |  |
| COc1ccc2c(c1)c(-c1ccsc1C#N)c(-c1cccs1)n2S(=O)(=O)c1ccc(Cl)cc1 [1/39] | > 10000 nM |  |
| N#Cc1sccc1-c1c(-c2cccs2)n(S(=O)(=O)c2ccc(Cl)cc2)c2cc(OCC(=O)O)ccc12 [15/3] | > 10000 nM |  |
